{"source": "paper PMC9601927", "about": "(Foods, 2022)", "key": {"sGLT1 [1]": {"system": "sGLT1", "assay": "Immunofluorescence staining of sGLT1 in Caco-2 cells", "assay_type": "cell-based", "details": "ANC 2.3 × 10^−4 mg/mL or FA-g-CS 9 × 10^−5 mg/mL, 48 h", "procedure": "Immunofluorescence staining was carried out to further validate the effect of FA-g-CS/ANC on the expression of sGLT1 and GLUT2. In short, Caco-2 cells were transfected with NC siRNA (negative control), GLUT2-siRNA-2, and sGLT1-siRNA-3; then, they were seeded onto a 4-well slide and chamber (Watson, Kobe, Japan). Subsequently, cells were incubated with 0.09 µg/mL FA-g-CS, 0.23 µg/mL ANC, or their combination at 37 °C for 48 h. Then, they were fixed with 4% paraformaldehyde for 10 min and soaked with 0.5% Triton X-100 in PBS for 15 min. In this study, goat serum was used to avoid nonspecific binding at room temperature. After 30 min of treatments, the cells were incubated with the primary antibody ([…], Santa Cruz Biotechnology, with 1:100 dilutions) at 4 °C overnight, followed by incubation with the secondary antibody (goat anti-mouse IgG1-HRP, Santa Cruz Biotechnology, Shanghai, China, with 1:100 dilutions) for 1 h at 20–37 °C. Nuclear staining was performed with DAPI, and the images were captured with a fluorescence microscope (BX53, Olympus, Tokyo, Japan)."}, "[2]": {"assay": "ANC transmembrane transport across Caco-2 cell monolayer (Transwell, HPLC)", "assay_type": "in vitro ADME", "details": "human, Caco-2", "procedure": "In this work, we utilized and slightly modified a procedure from Zou et al. to perform ANC transport studies. Firstly, ANC commercial powder was pre-dissolved in ultra-pure water and phosphate-buffered solution (PBS, pH7.4) was used for FA-g-CS dissolving. Then, pre-warmed phosphate-buffered saline (PBS) was used to wash and equilibrate the Transwell. Subsequently, the transport buffer containing ANC was added to the basolateral (1.5 mL) or the apical (0.5 mL) side of the inserts, while the corresponding volume of transport buffer was added to the receiving container. Samples measuring 50 uL were taken after 1, 2, 3, and 4 h incubation, and the same amount of pre-warmed PBS was replenished immediately. The samples were treated with HCl and frozen until HPLC analysis. The ANC-absorption-enhancing studies with FA-g-CS across Caco-2 cells were conducted using a transport buffer containing FA-g-CS+ANC instead of ANC alone.\nTransport efficiency (A→B (%)) was calculated according to the following formula: (concentrations of the compound at basolateral side overtime)/(concentrations of the compound at the apical side at zero hours) × 100. The apparent permeability coefficient (Papp) was defined as follows: Papp = (dQ/dt)(1/[AC0]); here, A represents the surface area of the Transwell, C0 represents the compound concentration added in the apical side, and the transport rate of the compound over time is denoted by dQ/dt."}, "Caco-2 cells": {"system": "Caco-2 cells", "assay": "MTT cell viability assay", "assay_type": "cell-based", "procedure": "Caco-2 cells were provided by the Cell Bank of the Chinese Academy of Sciences (Shanghai, China). MTT analysis was used to investigate cell viability. In short, Caco-2 cells were incubated with ANC (0.23, 0.69, 2.06, 6.17, 18.52, 55.56, 166.67, or 500 × 10^−3 mg/mL), FA-g-CS (0.09, 0.27, 0.82, 2.47, 7.41, 22.22, 66.67, or 200 × 10^−3 mg/mL), or their respective combinations. Each group was incubated with three multiple wells for 48 h. Subsequently, the chemical medium was replaced with fresh MTT solution for 3 h at 37 °C and the […] was dissolved with DMSO. Then, the optical density (OD) was measured at 570 nm using a PerkinElmer EnVision (PerkinElmer, Waltham, MA, USA). The following Formula (1) was used to calculate cell viability:(1) Cell viability(%)=ODsample−ODblank/ODcontrol−ODblank where ODcontrol, ODsample, and ODblank represent the measurements of the control, sample, and blank, respectively."}, "sGLT1 [3]": {"system": "sGLT1", "assay": "Western blot of sGLT1 expression in Caco-2 cells after siRNA transfection and incubation", "assay_type": "cell-based", "procedure": "Firstly, the cells were washed twice with 1 mL of cold PBS and then lysed in 100 μL of ice-cold RIPA lysis buffer. Western blot analysis was performed following the previous method with minor modifications. Briefly, total protein samples were resolved by SDS-PAGE (8%, 10%, or 12%) and transferred to PVDF membranes blocked with 5% nonfat milk powder in TBST; these were then incubated with 8 μg of primary antibody at a dilution of 1:1000/500 (v/v) overnight at 4 °C. Detection was performed with 10 mL of ECL and oxidizing reagent and equal amounts of HRP-conjugated anti-mouse at a 1:5000 (v/v) dilution rate. To further illustrate the effect of FA-g-CS on the transmembrane transport of ANC, the Caco-2 cells were transfected with siRNA targeted to sGLT1 and GLUT2 (the optimal interference fragments screened by previous tests) and then incubated with FA-g-CS, ANC, or their combinations. Finally, the expressions of sGLT1 and GLUT2 were detected using a Western blot assay."}}, "data": [{"smiles": "OC[C@H]1O[C@@H](Oc2cc3c(O)cc(O)cc3[o+]c2-c2ccc(O)c(O)c2)[C@H](O)[C@@H](O)[C@@H]1O", "note": "[ANC, Cyanidin-3-glucoside]", "values": [{"measurement": "protein level of sGLT1 (immunofluorescence) compared with the control cells", "setting": "sGLT1 [1]", "result": "increased"}, {"measurement": "Papp A→B at 4 h, 0.05 ×10^−3 mg/mL", "setting": "[2]; ANC 0.05 ×10^−3 mg/mL, 4 h", "result": "0.491 ± 0.058", "unit": "×10⁻⁶ cm/s"}, {"measurement": "Papp B→A at 4 h, 0.05 ×10^−3 mg/mL", "setting": "[2]; ANC 0.05 ×10^−3 mg/mL, 4 h", "result": "0.378 ± 0.048", "unit": "×10⁻⁶ cm/s"}, {"measurement": "efflux ratio at 4 h, 0.05 ×10^−3 mg/mL", "setting": "[2]; ANC 0.05 ×10^−3 mg/mL, 4 h, read-out: Papp (B→A)/ Papp (A→B)", "result": 0.77}, {"measurement": "Papp A→B at 4 h, 0.1 ×10^−3 mg/mL", "setting": "[2]; ANC 0.10 ×10^−3 mg/mL, 4 h", "result": "0.961 ± 0.048", "unit": "×10⁻⁶ cm/s"}, {"measurement": "Papp B→A at 4 h, 0.1 ×10^−3 mg/mL", "setting": "[2]; ANC 0.10 ×10^−3 mg/mL, 4 h", "result": "0.719 ± 0.098", "unit": "×10⁻⁶ cm/s"}, {"measurement": "efflux ratio at 4 h, 0.1 ×10^−3 mg/mL", "setting": "[2]; ANC 0.10 ×10^−3 mg/mL, 4 h, read-out: Papp (B→A)/ Papp (A→B)", "result": 0.75}, {"measurement": "Papp A→B at 4 h, 0.15 ×10^−3 mg/mL", "setting": "[2]; ANC 0.15 ×10^−3 mg/mL, 4 h", "result": "1.5 ± 0.523", "unit": "×10⁻⁶ cm/s"}, {"measurement": "Papp B→A at 4 h, 0.15 ×10^−3 mg/mL", "setting": "[2]; ANC 0.15 ×10^−3 mg/mL, 4 h", "result": "1.94 ± 0.908", "unit": "×10⁻⁶ cm/s"}, {"measurement": "efflux ratio at 4 h, 0.15 ×10^−3 mg/mL", "setting": "[2]; ANC 0.15 ×10^−3 mg/mL, 4 h, read-out: Papp (B→A)/ Papp (A→B)", "result": 1.29}, {"measurement": "Papp A→B at 4 h, 0.2 ×10^−3 mg/mL", "setting": "[2]; ANC 0.20 ×10^−3 mg/mL, 4 h", "result": "1.12 ± 0.108", "unit": "×10⁻⁶ cm/s"}, {"measurement": "Papp B→A at 4 h, 0.2 ×10^−3 mg/mL", "setting": "[2]; ANC 0.20 ×10^−3 mg/mL, 4 h", "result": "1.48 ± 0.048", "unit": "×10⁻⁶ cm/s"}, {"measurement": "efflux ratio at 4 h, 0.2 ×10^−3 mg/mL", "setting": "[2]; ANC 0.20 ×10^−3 mg/mL, 4 h, read-out: Papp (B→A)/ Papp (A→B)", "result": 1.32}, {"measurement": "Papp at 4 h", "setting": "[2]; ANC alone, overall statement", "result": "< 1", "unit": "×10⁻⁶ cm/s"}, {"measurement": "influence on Caco-2 cells (Figure 1A–C, MTT)", "setting": "Caco-2 cells; 2.3 × 10^−4 or 6.9 × 10^−4 mg/mL ANC", "result": "insignificant influence"}, {"measurement": "effect on cell viability (MTT)", "setting": "Caco-2 cells; ANC concentration lower than 6.17 × 10^−3 mg/mL, 48 h", "result": "no significant effect"}, {"measurement": "expression of sGLT1 compared with the blank", "setting": "sGLT1 [3]; cells treated with nonrelated and scrambled siRNA", "result": "significantly elevated"}, {"measurement": "expression level of sGLT1 compared with the blank control", "setting": "sGLT1 [3]; cells treated with siRNA transfection", "result": "significantly increased"}, {"measurement": "increased sGLT1 expression", "setting": "sGLT1 [3]; siRNA-transfected Caco-2 cells incubated with compounds (abstract)", "result": "< 60", "unit": "%"}]}]}
